A short description of data set [1]: Phase 3 extension study: rapid IM injection of Compound 1, pain and injection site reactions. The note with it: fast injection. The class given is in vivo, human. Here is the method:
Injection site reactions and pain upon IM injection of Compound 1 are a potential safety concern. A Phase 3, multicenter, extension study was conducted in 81 sites to assess the effect of rapid IM injections of Compound 1 on human patients diagnosed with stable schizophrenia. Briefly, 332 subjects enrolled in the study were assigned PFS. Compound 1 is formulated as a pre-filled syringe (PFS) of an extended release aqueous suspension of a therapeutically effective amount of Compound 1. An injection volume of 3.4 mL or 1.6 mL of the aqueous suspension was administered according to protocol I at a rate of less than 10 seconds by inserting the 20 gauge needle in the gluteal muscle. ISRs upon IM injection of Compound 1 were assessed at each visit. Over 5000 injections of Compound 1 have been administered intramuscularly with an ISR rate of less than 1%.
• 1. TAP the pre-filled syringe at least 10 times to dislodge any material that may have settled. • 2. […] Replace with new needle (Steps 3 & 4) and administer into an adjacent site in the same gluteal muscle (Steps 5 & 6).] • If you are unable to complete the injection, replace with new needle (Steps 3 & 4) and readminister into an adjacent site in the same gluteal muscle (Steps 5 & 6). • 7. […]

For data set [2] the following is noted: cited from earlier work.

Structures are written as SMILES.

Regarding `CCCCCCCCCCCC(=O)OCN1C(=O)CCc2ccc(OCCCCN3CCN(c4cccc(Cl)c4Cl)CC3)cc21` [Compound 1, (7-(4-(4-(2,3-dichlorophenyl)piperazin-1-yl)butoxy)-2-oxo-3,4-dihydroquinolin-1(2H)-yl)methyl dodecanoate], the “injection site reactions and/or elevated pain levels reported, % of patients” value in data set [1] is listed as less than 1%.
On to `O=C1CCc2ccc(OCCCCN3CCN(c4cccc(Cl)c4Cl)CC3)cc2N1` [aripiprazole free base, 7-{4-[4-(2,3-dichlorophenyl)-1-piperazinyl]butoxy}-3,4-dihydro-2(1H)-quinolinone], for which the Tissue irritation entry in data set [2] (following intramuscular (IM) injection and subcutaneous (SC) injection) is “moderate to severe”. Also, the Pharmacokinetic profile entry in data set [2] (injections) is reported as “prolonged”.

Source of the values: patent US12653822B2, “Aripiprazole formulations having increased injection speeds” (ALKERMES PHARMA IRELAND LIMITED, priority 2014, dated 2026).
